One data set has as its system Colo-205 Control shRNA. Nature of the data set: TCF reporter activity, Colo-205 Control shRNA. It is filed as cell-based. As to the method:
(§1) Colo-205 (ATCC, catalog #CCL-222), HepG2 (ATCC, catalog #HB-8065), CFPAC1 (ATCC, catalog #CRL-1918), or DU4475 (ATCC, catalog #HTB-123) cells are plated in 10 mL of complete DMEM cell culture media [DMEM (Life Technologies, product #11960-051) media supplemented with 10% FBS (Hyclone, catalog #SH30071.03), antimycotic/antibiotic (Life Technologies, product #15240-062), and Glutamax (Life Technologies, product #35050-061)] at 3×10^6 cells per 10 cm cell culture plate (Corning, product #430167). Cells are allowed to attach and grow overnight at 37° C. in humidified 5% CO2. Cells are transduced by addition of 1×10^6 infectious units of lentivirus encoding WFS1 shRNA (Santa Cruz Biotech, catalog #sc-61804-V) or a non-targeting control shRNA (Santa Cruz Biotech, catalog #sc-108080) and 10 ug/ml of Polybrene® (Santa Cruz Biotech, catalog #sc-134220) to the cell culture media. After 48 hours transduced cells are selected by the addition of 1 microgram/mL of puromycin (Life Technologies, catalog #A1113803) to the cell culture media.

The next data set has as its system Colo-205 WFS1 shRNA. Kind of data set: TCF reporter activity, Colo-205 WFS1 shRNA. It is filed as cell-based. The procedure:
as §1

The next data set relates to DU4475 Control shRNA. Nature of the data set: TCF reporter activity, DU4475 Control shRNA. In kind it is cell-based. As to the method:
as §1

The test system of another data set is DU4475 WFS1 shRNA. Nature of the data set: TCF reporter activity, DU4475 WFS1 shRNA. In kind it is cell-based. As to the method:
as §1

Data set [1] concerns Colo-205 cells, non-targeting control shRNA. Nature of the data set: Cell viability, Colo-205 control shRNA. It is filed as cell-based. As to the method: as §1
Data set [2] relates to Colo-205 cells, shRNA targeting WFS1. Kind of data set: Cell viability, Colo-205 WFS1 shRNA. In kind it is cell-based. The settings on record: for increase in the IC50 in reducing cell viability on WFS1 knockdown: DU4475, Colo-205 and HepG2 cells, WFS1 shRNA vs control cells; for IC50: Colo-205 WFS1 shRNA. The procedure:
as §1

The test system of data set [3] is DU4475 cells, non-targeting control shRNA. Nature of the data set: Cell viability, DU4475 control shRNA. It is filed as cell-based. As to the method: as §1
Data set [4] relates to DU4475 cells, shRNA targeting WFS1. Nature of the data set: Cell viability, DU4475 WFS1 shRNA. In kind it is cell-based. The procedure: as §1
In data set [5] the test system is HepG2 cells, non-targeting control shRNA. Kind of data set: Cell viability, HepG2 control shRNA. In kind it is cell-based. The procedure: as §1
Data set [6] relates to HepG2 cells, shRNA targeting WFS1. Kind of data set: Cell viability, HepG2 WFS1 shRNA. It is filed as cell-based. As to the method:
as §1

For data set [7], the system named is HepG2 cells with CRISPR/Cas9 mediated WFS1 knockout (KO). Nature of the data set: Calcium flux in parental HepG2 vs HepG2 WFS1 knockout cells. It is filed as cell-based. The settings on record: 30 minutes after compound addition. From the text:
A double cleavage strategy was employed to remove large fragments from the WFS1 locus. Suitable target sites in WFS1 exon 8 were first selected using CRISPR design software to rank suitable target sites and computationally predict off-target sites for each intended target. Six top guide RNA sequences are identified and screened for activity using the Surveyor Mutation Detection Kit (Integrated DNA Technologies). Then, the best 2 guide RNAs were cloned into GeneArt OFP CRISPR nuclease vectors (Thermofisher, Cat #A21174) separately and co-transfected into HepG2 cells using nucleofection (4D Nucleofector X, Lonza). Cells were sorted by FACS 48 hrs later to enrich for the OFP positive cell population. The OFP positive cell population were plated into 96-well plates at 0.5-5 cells/well to isolate clonal cell lines. After allowing cells to expand for 2-3 weeks, plates were inspected for presence of colonies. When colonies became more than 70% confluent, they were dissociated with trypsin and were further expanded. Cell clones with homozygous double cleavage of WFS1 exon 8 were detected with PCR and confirmed with DNA sequencing.
In general terms: Calcium assays in cells follow changes in intracellular calcium, usually with a dye or a luminescent sensor.

The test system of data set [8] is Hek293 cells over-expressing WFS1. Nature of the data set: Calcium flux in Hek293 cells over-expressing WFS1 vs empty vector. In kind it is cell-based. The settings on record: induction of calcium flux. An excerpt: To determine the effect of WFS1 over-expression on compound mediated effects on calcium flux and cell viability, Hek293 cells were transduced with either an empty retroviral vector or a retroviral vector expressing full length WFS1 cDNA. Hek293 cells transduced with the WFS1 encoding retrovirus expressed greater than 100 times the amount of WFS1 protein than empty vector Hek293 cells (FIG. 3).

Data set [9] relates to ER stress marker proteins XBP1(s) and ATF4. Kind of data set: ER stress marker immunoblot in parental HepG2 vs WFS1 KO cells. It is filed as cell-based. The settings on record: 6 hours, immunoblotting. From the text: (§2) In contrast WFS1 depletion had no effect on thapsigargin induced changes in global gene expression (FIG. 7.)
(In general: Immunoblotting shows a protein as a band on a membrane.)

The test system of data set [10] is global gene expression in HepG2 cells. Kind of data set: Global gene expression changes in HepG2 vs WFS1 depleted cells. It is filed as cell-based. The settings on record: HepG2, 6 hours of exposure.
Description: as §2

The next data set deals with lung PDX models. Kind of data set: Response of lung PDX models with highest and lowest WFS1 gene expression. It is filed as in vivo. The settings on record: 10 highest and 10 lowest WFS1 expressing lung PDX models. From the text: Finally, an in vivo study was run to evaluate the relationship between WFS1 expression in patient derived xenografts (PDX). To do this, the 10 lung PDX models with the highest WFS1 gene expression and the 10 lung PDX models with the lowest WFS1 gene expression were selected from the Oncotest compendium.

Structures are written as SMILES. Where two headings read alike, the source gives them in different places.

The IC50 is the concentration that inhibits the measured activity by half. Low readings indicate inhibition by little substance, high ones a need for much substance. Usually melting point stands for the temperature, or range, at which the solid turns liquid.

Consider `Cc1nc(N[C@H]2C[C@H](Oc3cc(F)c(F)c(F)c3)C2)nc2c1N(C)C(=O)[C@H](C)N2C` [Compound 253, (7S)-4,5,7,8-tetramethyl-2-((trans-3-(3,4,5-trifluorophenoxy)cyclobutyl)amino)-7,8-dihydropteridin-6(5H)-one], for which the 50% inhibitory concentration (IC50) with Colo-205 Control shRNA (Homo sapiens) is 0.2 µM; in the data set on Colo-205 WFS1 shRNA (Homo sapiens), 1.5 µM; in the data set on DU4475 Control shRNA (Homo sapiens, DU-4475), 0.2 µM; in the data set on DU4475 WFS1 shRNA (Homo sapiens, DU-4475), 1 µM; in data set [1] (Homo sapiens), 0.14 µM; in data set [2] (Homo sapiens), over 9 µM. In addition, the IC50 in [3] (Homo sapiens, DU-4475) was 0.1 µM; in [4] (Homo sapiens, DU-4475) it was 7.8 µM; in data set [5] (Homo sapiens) it was 0.2 µM; in data set [6] (Homo sapiens), 17 µM. The “increase in the IC50 in reducing cell viability on WFS1 knockdown” value in data set [2] was “greater than 50 fold”.

The molecule `COc1c(F)cc(Cn2cc(CNc3nc(C)c4c(n3)N(C)[C@@H](C)C(=O)N4)cn2)cc1F` [Compound 46, (7S)-2-(((1-(3,5-difluoro-4-methoxybenzyl)-1H-pyrazol-4-yl)methyl)amino)-4,7,8-trimethyl-7,8-dihydropteridin-6(5H)-one] returned a melting point of 136 to 138 °C.

As for `Cc1nc(NCc2cnn(Cc3ccc(C(F)(F)F)nc3)c2)nc2c1NC(=O)[C@H](C)N2C` [Compound 136, (7S)-4,7,8-trimethyl-2-(((1-((6-(trifluoromethyl)pyridin-3-yl)methyl)-111-pyrazol-4-yl)methyl)amino)-7,8-dihydropteridin-6(5H)-one], the IC50 is 0.1 µM with Colo-205 Control shRNA; 0.7 µM in the data set with Colo-205 WFS1 shRNA; 0.09 µM in the data set on DU4475 Control shRNA; 0.7 µM with DU4475 WFS1 shRNA; 0.05 µM in data set [1]; over 9 µM in data set [2]. The half-inhibitory concentration (IC50) worked out at 0.08 µM in [3], 6.1 µM in data set [4], 0.26 µM in data set [5] and 2.2 µM in [6]. In addition, the “increase in the IC50 in reducing cell viability on WFS1 knockdown” value in data set [2] was “greater than 50 fold”. The “effect of WFS1 depletion on ability to induce calcium flux” value in data set [7] was “completely eliminated”. Moreover, the “reduction in the EC50 on over-expression of WFS1” value in data set [8] was “approximately 10 fold”. In addition, in data set [9], the “effect of WFS1 depletion on induction of XBP1(s) and ATF4” value is “prevents the induction”. Besides, the “effect of WFS1 depletion on changes in global gene expression” value in [10] was “prevented Compound 136 from causing changes”. Further, the “association between WFS1 gene expression and response in PDX models” value in the data set on lung PDX models is recorded as “strong association”.
